{"source": "patent US8071744B2", "about": "“TRP/HIS exchange and kynurenin induced TRP transport” (Carnegie Institution of Washington, priority 2007, dated 2011)", "molecules": {"B1": {"name": "IFNγ: cytokine interferon gamma, induces indoleamine 2,3-dioxygenase in KB cells (protein, UniProt P01579 24-161, looked up)", "Interferon gamma": "QDPYVKEAENLKKYFNAGHSDVADNGTLFLGILKNWKEESDRKIMQSQIVSFYFKLFKNFKDDQSIQKSVETIKEDMNVKFFNSNKKKRDDFEKLTNYSVTDLNVQRKAIHELIQVMAELSPAAKTGKRKRSQMLFRG"}}, "key": {"[1]": {"system": "COS-7 cells", "test": "Ratio imaging of intracellular tryptophan in perfused COS-7 cells expressing FLIPW-CTYT (uptake and exchange)", "format": "cell-based, monkey", "conditions": "for tryptophan export from tryptophan-preloaded cells (counterexchange): extracellular amino acids at 100 μM, DL-HK 200-1000 μM; for effect on the uptake rate of 100 μM L-tryptophan: inhibitors at 5 mM", "protocol": "(§1) Tissue culture and transfection. For cytosolic expression in COS-7 cells, the gene encoding CTYT was amplified by PCR with primers encoding unique BamHI and EcoRI restriction sites at the 5′ and 3′ end, respectively, and cloned into BamHI/EcoRI digested peDNA3.1(+) vector (Invitrogen), resulting in plasmid pTK222. COS-7 cells were grown in Dulbecco's modified Eagle's medium (high glucose; DMEM, Gibco) with 10% fetal calf serum and 50 μg; ml penicillin and 50 μg/ml streptomycin (Gibco). Cells were cultured at 37° C. and 5% CO2. For imaging, cells were cultured in 8-well LabTekII German tissue culture glass slides (Nalg Nunc International) and transiently transfected at 50-70% confluence using Lipofectamine 2000 Reagent (Invitrogen) in Opti-MEM I reduced serum medium (Gibco): After transfection, cells were cultured for 16 hours in Opti-MEM followed by 3 hours in DMEM prior to imaging.\nImaging. Ratio imaging was performed on an inverted fluorescence microscope (DM IRE2, Leica) with a Quant EM digital camera (Photometrics) and 20× oil immersion, 63× water immersion lenses (HC PL APO 20×/0.7 or HCX PL APO, Leica, Germany). Dual emission intensity ratios were simultaneously recorded using a DualView with an OI-5-EM filter set (eCFP 480/30; eYFP 535/40; Optical 17 Insights, USA) and Metafluor 6.3r6 software (Molecular Devices, USA). A Sutter Instruments Lambda DG4 provided excitation. Images were acquired within the linear detection range of the camera and exposure times varied between 50 to 200 ms, depending on the expression level, with software binning between 2 and 3. […] Cells were perfused with Tyrode's buffer at flow rates of 1.0 ml/min in a vacuum chamber with a total volume of 0.1 ml. Inhibitors BCH and MeIAB were used at 5 mM concentrations. For determination of the substrate specificity of the tryptophan exchange, all 20 amino acids were tested at 100 μM concentrations."}, "[2]": {"target": "T1, FLIPW-CTYT (Escherichia coli, UniProt P0A881)", "T1 construct": "Venus (YFP variant); made in house; host or cells: E. coli BL21(DE3)gold", "test": "In vitro FRET titration of FLIPW-CTYT with tryptophan substrates and kynurenines", "format": "binding, E. coli", "conditions": "data not shown", "protocol": "(§2) In vitro characterization of FLIPW and FLIPpur sensors. […] The eCFP emission used for the ratio calculation was determined at 485 nm. Protein was diluted to give Venus/eYFP readouts of 20,000 to 30,000 at a manual gain between 70-75. By using the change in FRET ratio upon binding of ligand, affinity constants (Kd) were determined by fitting the titration curves to a single-site-binding isotherm: R=Rapo+(Rsat−Rapo)·(n·[L])/(Kd+[L]) with [L], ligand concentration; n, number of equal binding sites; R, ratio; Rapo, ratio in the absence of ligand; and Rsat, ratio at saturation with ligand. Three independent protein preparations were analyzed and each protein preparation was analyzed in triplicate."}, "[3]": {"target": "T2, FLIPW-CTY (Escherichia coli, UniProt P0A881)", "T2 construct": "fused on or other part: eCFP at the N-terminus and Venus (YFP variant) at the C-terminus as FRET reporter handles; pRSETb vector leader; Gateway att-derived linkers", "test": "In vitro FRET titration of FLIPW-CTY with tryptophan substrates", "format": "binding, E. coli", "protocol": "as §2"}, "[4]": {"target": "unmodified TrpR (Escherichia coli, UniProt P0A881)", "conditions": "cited from earlier work"}, "[5]": {"system": "COS-7 cells", "conditions": "read-out: apparent KM for combined transport and metabolism; 96-well microplate, Michaelis-Menten fit of FRET increase rate, 0.05-25 μM L-tryptophan", "protocol": "as §1"}, "[6]": {"target": "LAT1 (Homo sapiens, UniProt Q01650)", "sequence (Q01650 whole entry)": "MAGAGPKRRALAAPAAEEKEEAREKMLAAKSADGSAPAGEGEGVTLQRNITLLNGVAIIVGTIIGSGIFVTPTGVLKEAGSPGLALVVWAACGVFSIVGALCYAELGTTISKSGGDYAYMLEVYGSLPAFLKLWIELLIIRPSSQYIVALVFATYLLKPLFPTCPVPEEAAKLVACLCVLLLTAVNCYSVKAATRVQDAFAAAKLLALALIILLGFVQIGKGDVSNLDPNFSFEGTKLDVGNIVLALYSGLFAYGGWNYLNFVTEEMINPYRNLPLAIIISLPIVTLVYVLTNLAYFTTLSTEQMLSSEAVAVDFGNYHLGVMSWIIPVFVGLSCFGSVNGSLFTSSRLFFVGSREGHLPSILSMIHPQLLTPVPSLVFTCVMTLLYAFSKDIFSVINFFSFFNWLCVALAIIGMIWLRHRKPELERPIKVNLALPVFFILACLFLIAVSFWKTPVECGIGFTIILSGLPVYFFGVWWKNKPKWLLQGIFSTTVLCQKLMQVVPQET", "conditions": "oocytes; sum of free, incorporated and degraded tryptophan; cited from earlier work"}, "[7]": {"system": "KB cells", "test": "FRET imaging of intracellular tryptophan in interferon-gamma treated KB cells", "format": "cell-based, human", "conditions": "IFNγ 500 U/ml, perfusion with Tyrode's buffer", "protocol": "It was also assessed whether affecting the metabolism of tryptophan could be monitored using the FRET nanosensors. The induction of indoleamine 2,3-dioxygenase (IDO) by interferon-gamma in KB cells has been described by Ozaki et al. (Proc. Natl. Acad. Sci. U.S.A. (1988)85: 1242-1246). Indoleamine 2,3-dioxygenase degrades tryptophan to formyl-kynurenine in the cytosol. Accordingly, KB cells were seeded at 10%, 25%, 50% dilution (derived from a suspension that was from ˜90% confluent plate). Interferon gamma (IFNγ) was added at 500 and 1000 U/ml. KB cells used as a control (i.e. no IFNγ) were seeded at 10% dilution only. KB cells were incubated in growth medium (MEM-alpha, 10° A FBS (fetal bovine serum), penicillin/streptomycin) and then in OPTIMEM for 4 days prior to imaging. Cells were transfected (in OPTIMEM) with the pTK222c construct 1 day prior to imaging. IFNγ was maintained during transfection in OPTIMEM. Three hours prior to imaging, the cells were incubated in growth medium (containing IFNγ in the respective cultures). After three hours, the growth medium was exchanged with Tyrode's solution and the cells were kept in incubation chamber until analysis. The cells were perfused with 1 μM, 5 μM, 50 μM, and 100 μM L-tryptophan in Tyrode's solution."}}, "data": [{"molecule": "CC(C)C[C@H](N)C(=O)O", "note": "[leucine]", "values": [{"measurement": "tryptophan export from tryptophan-preloaded cells (counterexchange)", "setting": "[1]", "result": "able to promote tryptophan export"}]}, {"molecule": "N[C@@H](Cc1c[nH]cn1)C(=O)O", "note": "[histidine, L-histidine]", "values": [{"measurement": "tryptophan export from tryptophan-preloaded cells (counterexchange)", "setting": "[1]", "result": "able to promote tryptophan export"}]}, {"molecule": "Nc1c(O)cccc1C(=O)O", "note": "[HAA, hydroxy-anthranilic acid]", "values": [{"measurement": "FLIPW-CTYT response or interference with tryptophan binding in vitro", "setting": "[2]", "result": "did not result in a FLIPW-CTYT response or interfere with tryptophan binding to the sensor"}, {"measurement": "tryptophan export from tryptophan-preloaded cells (counterexchange)", "setting": "[1]", "result": "did not result in tryptophan export"}]}, {"molecule": "Nc1c(O)cccc1C(=O)CC(N)C(=O)O", "note": "(stereo not drawn) [HK, 3-hydroxy-kynurenine]", "values": [{"measurement": "FLIPW-CTYT response or interference with tryptophan binding in vitro", "setting": "[2]", "result": "did not result in a FLIPW-CTYT response or interfere with tryptophan binding to the sensor"}, {"measurement": "tryptophan export from tryptophan-preloaded cells (counterexchange)", "setting": "[1]", "result": "resulted in reduction of the fluorophore emission ratios in the COS-7 cells, evidencing tryptophan export"}]}, {"molecule": "N[C@H](Cc1c[nH]c2ccccc12)C(=O)O", "note": "[D-tryptophan]", "values": [{"measurement": "concentration for decrease of FRET ratio relative to L-tryptophan", "setting": "[3]", "result": "about 5 fold"}, {"measurement": "reduced affinity of unmodified TrpR compared to L-tryptophan", "setting": "[4]", "result": 20, "unit": "fold"}]}, {"molecule": "CC(C)[C@H](N)C(=O)O", "note": "[valine]", "values": [{"measurement": "tryptophan export from tryptophan-preloaded cells (counterexchange)", "setting": "[1]", "result": "able to promote tryptophan export"}]}, {"molecule": "CNC(C)(C)C(=O)O", "values": [{"measurement": "effect on the uptake rate of 100 μM L-tryptophan", "setting": "[1]", "result": "did not decrease uptake rates"}]}, {"molecule": "NC1(C(=O)O)CC2CCC1C2", "note": "(stereo not drawn) [BCH, 2-aminobicyclo-(2,2,1)-heptane-2-carboxylic acid]", "values": [{"measurement": "effect on the uptake rate of 100 μM L-tryptophan", "setting": "[1]", "result": "decreased the uptake of tryptophan"}]}, {"molecule": "N[C@@H](Cc1c[nH]c2ccccc12)C(=O)O", "note": "[L-tryptophan]", "values": [{"measurement": "Km", "setting": "[5]", "result": "0.88 ± 0.27", "unit": "µM"}, {"measurement": "affinity of the cells for combined uptake and metabolism of tryptophan", "setting": "[1]; perfusion imaging, Michaelis-Menten fit", "result": "2.6 ± 1.1", "unit": "µM"}, {"measurement": "affinity of LAT1 for tryptophan uptake", "setting": "[6]", "result": 21.4, "unit": "µM"}]}, {"molecule": "N[C@@H](Cc1ccccc1)C(=O)O", "note": "[phenylalanine]", "values": [{"measurement": "tryptophan export from tryptophan-preloaded cells (counterexchange)", "setting": "[1]", "result": "able to promote tryptophan export"}]}, {"molecule": "CC[C@H](C)[C@H](N)C(=O)O", "note": "[isoleucine]", "values": [{"measurement": "tryptophan export from tryptophan-preloaded cells (counterexchange)", "setting": "[1]", "result": "able to promote tryptophan export"}]}, {"molecule": "Nc1ccccc1C(=O)CC(N)C(=O)O", "note": "(stereo not drawn) [K, kynurenine]", "values": [{"measurement": "FLIPW-CTYT response or interference with tryptophan binding in vitro", "setting": "[2]", "result": "did not result in a FLIPW-CTYT response or interfere with tryptophan binding to the sensor"}, {"measurement": "tryptophan export from tryptophan-preloaded cells (counterexchange)", "setting": "[1]", "result": "resulted in reduction of the fluorophore emission ratios in the COS-7 cells, evidencing tryptophan export"}]}, {"molecule": "CSCC[C@H](N)C(=O)O", "note": "[methionine]", "values": [{"measurement": "tryptophan export from tryptophan-preloaded cells (counterexchange)", "setting": "[1]", "result": "able to promote tryptophan export"}]}, {"molecule": "N[C@@H](Cc1ccc(O)cc1)C(=O)O", "note": "[tyrosine]", "values": [{"measurement": "tryptophan export from tryptophan-preloaded cells (counterexchange)", "setting": "[1]", "result": "able to promote tryptophan export"}]}, {"molecule": "B1", "values": [{"measurement": "effect on intracellular tryptophan concentration", "setting": "[7]", "result": "lower the intracellular tryptophan concentration"}]}]}
